Data: publication PMC11855827, “High-Throughput Screening of Five Compound Libraries for Anthelmintic Activity and Toxicity Leads to the Discovery of Two Flavonoid Compounds” (International Journal of Molecular Sciences, 2025)

System: C. elegans
Details: Table S2, C. elegans SS assay, 110 μM, averages of 4 data points

`CCCCCCCCCCCCC(=O)NNC(=O)c1c(O)c2ccccc2n(CC)c1=O` [I2906] was tested, and the “Percentage of motility inhibition 0 h” value was 27% and the “Percentage of motility inhibition 24 h” value was 30%.
In the case of `CC(C)=CCc1c(O)cc(O)c2c(=O)c(O[C@@H]3O[C@@H](C)[C@H](O)[C@@H](O)[C@H]3O)c(-c3ccc(O)cc3)oc12` [IKarisoside A], the “Percentage of motility inhibition 0 h” value is reported as 32% and the “Percentage of motility inhibition 24 h” value is reported as 5%.
In the case of `COc1ccc(-c2oc3c(CC=C(C)C)c(O[C@@H]4O[C@H](CO)[C@@H](O)[C@H](O)[C@H]4O)cc(O)c3c(=O)c2O)cc1` [Icariside I], the “Percentage of motility inhibition 0 h” value is reported as 0% and the “Percentage of motility inhibition 24 h” value is reported as 23%.
In the case of `CC(C(O)c1ccc(O)cc1)N1CCC(Cc2ccccc2)CC1.CC(C(O)c1ccc(O)cc1)N1CCC(Cc2ccccc2)CC1.O=C(O)C(O)C(O)C(=O)O` (stereo not shown) [Ifenprodil (ta rtrate)], the “Percentage of motility inhibition 0 h” value is reported as 12% and the “Percentage of motility inhibition 24 h” value is reported as 15%.
`C[C@@H]1CC[C@]2(C(=O)O)CC[C@]3(C)C(=CC[C@@H]4[C@@]5(C)CC[C@H](O)[C@](C)(C(=O)O)[C@@H]5CC[C@]43C)[C@@H]2[C@]1(C)O` [Ilexgenin A] was tested, and the “Percentage of motility inhibition 0 h” value was 27% and the “Percentage of motility inhibition 24 h” value was 0%.
With `C[C@H]1CC[C@]2(C(=O)O)CC[C@]3(C)C(=CC[C@@H]4[C@@]5(C)CC[C@H](O[C@@H]6OC[C@@H](O)[C@H](O)[C@H]6O[C@@H]6O[C@H](CO)[C@@H](O)[C@H](O)[C@H]6O)C(C)(C)[C@@H]5CC[C@]43C)[C@@H]2[C@]1(C)O` [Ilexoside D] the “Percentage of motility inhibition 0 h” value was 0% and the “Percentage of motility inhibition 24 h” value was 22%.
With `C[C@@H]1CC[C@]2(C(=O)O[C@@H]3O[C@H](CO)[C@@H](O)[C@H](O)[C@H]3O)CC[C@]3(C)C(=CC[C@@H]4[C@@]5(C)CC[C@H](O)[C@](C)(C(=O)O)[C@@H]5CC[C@]43C)[C@@H]2[C@]1(C)O` [Ilexsaponin A] the “Percentage of motility inhibition 0 h” value was 0% and the “Percentage of motility inhibition 24 h” value was 12%.
For `C[C@H]1CC[C@@H]2N(C1)C[C@H]1[C@@H]3C[C@H]4[C@@H](CC(=O)[C@H]5C[C@@H](O[C@@H]6O[C@H](CO)[C@@H](O)[C@H](O)[C@H]6O)CC[C@@]54C)[C@@H]3CC[C@H]1[C@]2(C)O` [Imperialine 3‐β‐D‐glucoside], the “Percentage of motility inhibition 0 h” value was 10% and the “Percentage of motility inhibition 24 h” value was 10%.
`CC(=O)O[C@H]1CC/C(C)=C/CC/C(C)=C/C[C@]2(C(C)C)CC[C@@]1(C)O2` [Incensole Acetate] was tested, and the “Percentage of motility inhibition 0 h” value was 9% and the “Percentage of motility inhibition 24 h” value was 17%.
For `CC(C)(C)NC(=O)[C@@H]1CN(Cc2cccnc2)CCN1C[C@@H](O)C[C@@H](Cc1ccccc1)C(=O)N[C@H]1c2ccccc2C[C@H]1O.O=S(=O)(O)O` [Indinavir (sulfate)], the “Percentage of motility inhibition 0 h” value was 8% and the “Percentage of motility inhibition 24 h” value was 10%.
`O=Cc1c[nH]c2ccccc12` [Indole‐3‐carboxaldehyde] was tested, and the “Percentage of motility inhibition 0 h” value was 0% and the “Percentage of motility inhibition 24 h” value was 17%.
In the case of `CC1=C[C@]23C(=O)[C@@H](C=C(COC(=O)c4ccccc4)[C@@H](O)[C@]2(O)[C@H]1OC(=O)c1ccccc1)[C@H]1[C@@H](C[C@H]3C)C1(C)C` [Ingenol 3,20-dibenzoate], the “Percentage of motility inhibition 0 h” value is reported as 0% and the “Percentage of motility inhibition 24 h” value is reported as 0%.
In the case of `CC1=CC23C(=O)C(C=C4COC(C)(C)OC4C24OC(C)(C)OC14)C1C(CC3C)C1(C)C` (stereo not shown) [Ingenol-3,4,5,20-diacetonide], the “Percentage of motility inhibition 0 h” value is reported as 1% and the “Percentage of motility inhibition 24 h” value is reported as 9%.
In the case of `C/C=C(/C)C(=O)O[C@H]1C(C)=C[C@]23C(=O)[C@@H](C=C4COC(C)(C)O[C@H]4[C@]12O)[C@H]1[C@@H](C[C@H]3C)C1(C)C` [Ingenol-5,20-acetonide-3-O-angelate], the “Percentage of motility inhibition 0 h” value is reported as 0% and the “Percentage of motility inhibition 24 h” value is reported as 0%.
